# Read-outs that look alike come from different tables or passages of the source.
# Legend:
# [1] = test system: phosphorylation of RIPK1 and phosphorylation of downstream protein MLKL; assay: Programmed necrosis pathway signals by western blot in FADD-deficient Jurkat cells; format: cell-based, human; conditions: 1.6 nM
# Procedure: In order to verify whether the compounds of the present invention can inhibit programmed cell necrosis by inhibiting the activity of RIPK1, and to detect the changes in the signal of the programmed necrosis pathway. FADD-deficient Jurkat or L929 cells treated with the compound of the present invention were used, and TNFα was added to induce programmed necrosis. Then the cells were collected and phosphorylation of RIPK1 and oligomerization of MLKL were detected using western blot.
# Methods: FADD-deficient Jurkat cells or L929 cells were cultured in vitro. After growing to the logarithmic growth phase, the cells were collected, centrifuged at 1000 rpm for 5 min, the supernatant was discarded, and the cell concentration was adjusted to 1×10^6/mL. In the 12-well cell culture plate, each well was added with 1 ml of cells, and 0.2 μL of DMSO solution with a concentration of 50 mM drug or pure DMSO control, and pretreated for 1 h. 0.5 μL of TNF α (PBS solution) with a concentration of 100 μg/ml was added to each stimulated group. […] The BCA protein quantification kit was used to detect the protein content of each group, and PIPA lysis buffer was used to adjust the protein amount to make the final volume being 100 μL. […] The resulting sample was incubated with ECL luminescent solution and the luminescent signal was detected.
# L929 cells = assay: Inhibition of TNF-induced programmed necrosis of L929 cells (Cell Titer-Glo viability); format: cell-based, mouse
# How it was run: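 Mouse L929 fibroblasts were diluted to 6.25×10^4/ml, plated at 40 μl per well in 384-well plates, and incubated 12 hours at 37° C., 5% CO2. Compounds were added, with SM164 (500 nM) for the combination arm, and pretreated 1 h before TNFα (500 ng/mL). After 14 h, viability was read by Cell Titer-Glo luminescence against unstimulated DMSO controls, and EC50 values were fitted in Prism Graphpad.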
# FADD−/− Jurkat cells = assay: Inhibition of TNF-induced programmed necrosis of FADD deficient Jurkat cells (Cell Titer-Glo viability); format: cell-based
# How it was run: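 FADD-deficient human Jurkat T leukemia cells in log phase were adjusted to 2.5×10^5/mL and plated at 40 μl per well in 384-well plates. Compounds were added, with SM164 (50 nM) where used, for a 1 h pretreatment at 37° C. TNFα (50 ng/mL) was then added, and cells were incubated 14 h at 37° C, 5% CO2. Viability was read as ATP luminescence with Cell Titer-Glo after 30 min at room temperature, with unstimulated DMSO wells set as 100%. EC50 values were calculated in Prism Graphpad.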
smiles,measurement,setting,value
Cn1ncc(C(=O)NCc2ccc(-n3cnc4c(N)ncnc43)cc2)c1Cc1ccccc1 [QY-10-40],inhibition of phosphorylation of RIPK1 and of downstream protein MLKL,[1],effectively inhibit
same,concentration that essentially completely inhibits TNFα-induced programmed necrosis,L929 cells; L929 cells,above 1 nM
same,EC50,"L929 cells; L929 cells, stimulated with TNFα + SM164, read-out: EC50 (μM) L929 cells (mouse) TNFα + SM164",0.00145 µM
same,EC50,"L929 cells; L929 cells, stimulated with TNFα alone, read-out: EC50 (μM) L929 cells (mouse) TNFα",0.00048 µM
same,inhibition of programmed necrosis (in words),L929 cells; mouse-derived L929 cells,excellently inhibit the occurrence of programmed necrosis
same,concentration that essentially completely inhibits TNFα-induced programmed necrosis,FADD−/− Jurkat cells; FADD-deficient Jurkat cells,above 1 nM
same,EC50,"FADD−/− Jurkat cells; FADD−/− Jurkat cells, stimulated with TNFα + SM164, read-out: EC50 (μM) FADD−/− Jurkat cells (human) TNFα + SM164",0.06 nM
same,EC50,"FADD−/− Jurkat cells; Homo sapiens, Jurkat, read-out: EC50 (μM) FADD−/− Jurkat cells (human) TNFα",0.001 nM
same,activity of inhibition of programmed necrosis compared with GSK2982772,"FADD−/− Jurkat cells; human FADD-deficient Jurkat cells, TNFα alone or in combination with SM164",stronger activity
